Structures are written as SMILES.

This assay has as its system MV-4-11 cells. Put plainly: Gene expression microarray analysis (Affymetrix PrimeView) and GSEA. It counts as cell-based, human. On the set-up: RFU PODN (11730768_x_at) / Fold change /veh PODN (11730768_x_at) / RFU LINC00158 (11744669_a_at) / Fold change /veh LINC00158 (11744669_a_at) / RFU DUSP10 (11751237_a_at) / Fold change /veh DUSP10 (11751237_a_at) / RFU ID3 (11757404_x_at) / Fold change /veh ID3 (11757404_x_at) / RFU PLEKHG5 (11737974_s_at) / Fold change /veh PLEKHG5 (11737974_s_at) / RFU LRRC4B (11730491_at) / Fold change /veh LRRC4B (11730491_at) / RFU GIMAP4 (11747438_a_at) / Fold change /veh GIMAP4 (11747438_a_at) / RFU KRT8 (11758183_x_at) / Fold change /veh KRT8 (11758183_x_at) / RFU CNN1 (11734310_a_at) / Fold change /veh CNN1 (11734310_a_at) / RFU VPS37D (11726825_at) / Fold change /veh VPS37D (11726825_at) / RFU C10orf10 (11716522_x_at) / Fold change /veh C10orf10 (11716522_x_at) / RFU KIR2DL2 /// KIR2DL4 /// KIR2DL5A /// KIR2DL5B /// KIR2DS1 /// KIR2DS2 /// KIR2DS3 /// KIR2DS4 /// KIR3DL3 /// KIR3DL3 /// KIR3DS1 (11738374_at) / Fold change /veh KIR2DL2 /// KIR2DL4 /// KIR2DL5A /// KIR2DL5B /// KIR2DS1 /// KIR2DS2 /// KIR2DS3 /// KIR2DS4 /// KIR3DL3 /// KIR3DL3 /// KIR3DS1 (11738374_at) / RFU C1QL1 (11718748_at) / Fold change /veh C1QL1 (11718748_at) / RFU TMPRSS4 (11747572_a_at) / Fold change /veh TMPRSS4 (11747572_a_at) / RFU HAMP (11756126_x_at) / Fold change /veh HAMP (11756126_x_at) / RFU RNFT2 (11725882_a_at) / Fold change /veh RNFT2 (11725882_a_at) / RFU NR4A2 (11747474_a_at) / Fold change /veh NR4A2 (11747474_a_at) / RFU ABCC12 (11746883_a_at) / Fold change /veh ABCC12 (11746883_a_at) / RFU TMEM136 (11760407_x_at) / Fold change /veh TMEM136 (11760407_x_at) / RFU CLDN22 /// WWC2 (11732394_at) / Fold change /veh CLDN22 /// WWC2 (11732394_at) / RFU HLA-DPB1 (11760878_x_at) / Fold change /veh HLA-DPB1 (11760878_x_at) / RFU SPINT1 (11716480_a_at) / Fold change /veh SPINT1 (11716480_a_at) / RFU GAP43 (11754022_s_at) / Fold change /veh GAP43 (11754022_s_at) / RFU A4GNT (11735810_at) / Fold change /veh A4GNT (11735810_at) / RFU PRB3 (11715151_x_at) / Fold change /veh PRB3 (11715151_x_at) / RFU TUBB4B (11761932_at) / Fold change /veh TUBB4B (11761932_at) / RFU CAPN14 (11732068_a_at) / Fold change /veh CAPN14 (11732068_a_at) / RFU TMCC2 (11721928_a_at) / Fold change /veh TMCC2 (11721928_a_at) / RFU IRGQ (11745062_a_at) / Fold change /veh IRGQ (11745062_a_at) / RFU FAM174B (11720279_a_at) / Fold change /veh FAM174B (11720279_a_at) / RFU TMPRSS4 (11748680_a_at) / Fold change /veh TMPRSS4 (11748680_a_at) / RFU FAM212B (11763350_a_at) / Fold change /veh FAM212B (11763350_a_at) / RFU PLEKHG5 (11743358_a_at) / Fold change /veh PLEKHG5 (11743358_a_at) / RFU ZSCAN30 (11745921_a_at) / Fold change /veh ZSCAN30 (11745921_a_at) / RFU CMKLR1 (11741424_a_at) / Fold change /veh CMKLR1 (11741424_a_at) / RFU LOC101060620 /// MAPK8IP1 (11723275_at) / Fold change /veh LOC101060620 /// MAPK8IP1 (11723275_at) / RFU SPTSSB (11747773_x_at) / Fold change /veh SPTSSB (11747773_x_at) / RFU PRSS12 (11739890_at) / Fold change /veh PRSS12 (11739890_at) / RFU BIN1 (11741810_x_at) / Fold change /veh BIN1 (11741810_x_at) / RFU WNT11 (11732464_a_at) / Fold change /veh WNT11 (11732464_a_at) / RFU C10orf10 (11716521_a_at) / Fold change /veh C10orf10 (11716521_a_at) / RFU C5orf56 (11738089_at) / Fold change /veh C5orf56 (11738089_at) / RFU CYB561 (11721691_x_at) / Fold change /veh CYB561 (11721691_x_at) / RFU ANKRD19P (11752326_a_at) / Fold change /veh ANKRD19P (11752326_a_at) / RFU OR2T12 /// OR2T33 /// OR2T8 (11738714_s_at) / Fold change /veh OR2T12 /// OR2T33 /// OR2T8 (11738714_s_at) / RFU VCAN (11748164_a_at) / Fold change /veh VCAN (11748164_a_at) / RFU JSRP1 (11732532_at) / Fold change /veh JSRP1 (11732532_at) / RFU KRTAP10-11 (11738290_x_at) / Fold change /veh KRTAP10-11 (11738290_x_at) / RFU MYO3A (11730013_a_at) / Fold change /veh MYO3A (11730013_a_at) / RFU EBF3 (11725865_a_at) / Fold change /veh EBF3 (11725865_a_at) / RFU CAMK2N1 (11719241_x_at) / Fold change /veh CAMK2N1 (11719241_x_at) / RFU C5orf56 (11738088_a_at) / Fold change /veh C5orf56 (11738088_a_at) / RFU OLFML3 (11715873_a_at) / Fold change /veh OLFML3 (11715873_a_at) / RFU LOC100653217 /// NTM (11731650_a_at) / Fold change /veh LOC100653217 /// NTM (11731650_a_at) / RFU MAPK11 (11762145_a_at) / Fold change /veh MAPK11 (11762145_a_at) / RFU FIZ1 (11724087_x_at) / Fold change /veh FIZ1 (11724087_x_at) / RFU OASL (11726364_x_at) / Fold change /veh OASL (11726364_x_at) / RFU SOX15 (11748057_x_at) / Fold change /veh SOX15 (11748057_x_at) / RFU CD79A (11719716_a_at) / Fold change /veh CD79A (11719716_a_at) / RFU HIST1H1D (11736915_at) / Fold change /veh HIST1H1D (11736915_at) / RFU CASKIN2 (11723855_a_at) / Fold change /veh CASKIN2 (11723855_a_at) / RFU LOC730098 (11760151_x_at) / Fold change /veh LOC730098 (11760151_x_at) / RFU OR4N2 (11742367_at) / Fold change /veh OR4N2 (11742367_at) / RFU PRRT2 (11749266_a_at) / Fold change /veh PRRT2 (11749266_a_at) / RFU SNX32 (11753110_a_at) / Fold change /veh SNX32 (11753110_a_at) / RFU CDHR5 (11726645_a_at) / Fold change /veh CDHR5 (11726645_a_at) / RFU RCAN1 (11760418_a_at) / Fold change /veh RCAN1 (11760418_a_at) / RFU FAM167A (11723789_a_at) / Fold change /veh FAM167A (11723789_a_at) / RFU FAM26E (11764081_at) / Fold change /veh FAM26E (11764081_at) / RFU ISYNA1 (11749810_s_at) / Fold change /veh ISYNA1 (11749810_s_at) / RFU ACY1 (11761880_at) / Fold change /veh ACY1 (11761880_at) / RFU 11764098_at / Fold change /veh 11764098_at / RFU SAMD14 (11745864_x_at) / Fold change /veh SAMD14 (11745864_x_at) / RFU NPB (11741838_a_at) / Fold change /veh NPB (11741838_a_at) / RFU TMPRSS6 (11731388_a_at) / Fold change /veh TMPRSS6 (11731388_a_at) / RFU KRTAP10-2 (11738614_at) / Fold change /veh KRTAP10-2 (11738614_at) / RFU ARHGAP8 /// PRR5-ARHGAP8 (11727945_x_at) / Fold change /veh ARHGAP8 /// PRR5-ARHGAP8 (11727945_x_at) / RFU KRTAP5-7 /// NADSYN1 (11734609_at) / Fold change /veh KRTAP5-7 /// NADSYN1 (11734609_at) / RFU RASL12 (11751679_a_at) / Fold change /veh RASL12 (11751679_a_at) / RFU CDKN2B (11736163_a_at) / Fold change /veh CDKN2B (11736163_a_at) / RFU PRF1 (11729649_at) / Fold change /veh PRF1 (11729649_at) / RFU, ZNF638 /// ZNF638-IT1 / Fold change vs veh, ZNF638 /// ZNF638-IT1 / RFU, PANK3 / Fold change vs veh, PANK3 / RFU, SH3YL1 / Fold change vs veh, SH3YL1 / RFU, ZEB2 / Fold change vs veh, ZEB2 / RFU, NRIP1 / Fold change vs veh, NRIP1 / RFU, PTTG1IP / Fold change vs veh, PTTG1IP / RFU, CAPN2 / Fold change vs veh, CAPN2 / RFU, MED14 / Fold change vs veh, MED14 / RFU, SNORA58 / Fold change vs veh, SNORA58 / RFU, C1orf63 / Fold change vs veh, C1orf63 / RFU, LRRFIP1 / Fold change vs veh, LRRFIP1 / RFU, NDUFAF7 / Fold change vs veh, NDUFAF7 / RFU, SLC12A2 / Fold change vs veh, SLC12A2 / RFU, IBTK / Fold change vs veh, IBTK / RFU, ESF1 / Fold change vs veh, ESF1 / Fold change vs veh, TMEM50B / RFU, TAOK1 / Fold change vs veh, TAOK1 / RFU, ACBD3 / Fold change vs veh, ACBD3 / RFU, TMA16 / Fold change vs veh, TMA16 / RFU, RWDD3 / Fold change vs veh, RWDD3 / RFU, BCAT1 / Fold change vs veh, BCAT1 / RFU, EDEM3 / Fold change vs veh, EDEM3 / RFU, TMEM33 / Fold change vs veh, TMEM33 / RFU, WDR75 / Fold change vs veh, WDR75 / RFU, AHCTF1 / Fold change vs veh, AHCTF1 / RFU, TFRC / Fold change vs veh, TFRC / RFU, ZDHHC17 / Fold change vs veh, ZDHHC17 / RFU, NOM1 / Fold change vs veh, NOM1 / RFU, ARL8B / Fold change vs veh, ARL8B / RFU, ZBTB11 / Fold change vs veh, ZBTB11 / RFU, TAMM41 / Fold change vs veh, TAMM41 / RFU, KIAA1704 /// LOC100996395 / Fold change vs veh, KIAA1704 /// LOC100996395 / RFU, ING1 / Fold change vs veh, ING1 / RFU, TRMT61B / Fold change vs veh, TRMT61B / RFU, FUBP3 / Fold change vs veh, FUBP3 / RFU, TP53 / Fold change vs veh, TP53 / RFU, TNKS2 / Fold change vs veh, TNKS2 / RFU, ZFP14 / Fold change vs veh, ZFP14 / RFU, ACTR2 / Fold change vs veh, ACTR2 / RFU, PPP3R1 / Fold change vs veh, PPP3R1 / RFU, PIK3R1 / Fold change vs veh, PIK3R1 / RFU, HNRNPA1 / Fold change vs veh, HNRNPA1 / RFU, RNF170 / Fold change vs veh, RNF170 / RFU, ZNF28 / Fold change vs veh, ZNF28 / RFU, RNGTT / Fold change vs veh, RNGTT / RFU, OGT / Fold change vs veh, OGT / RFU, BRD1 / Fold change vs veh, BRD1 / RFU, MARS / Fold change vs veh, MARS / RFU, ZNF655 / Fold change vs veh, ZNF655 / RFU, FAHD1 / Fold change vs veh, FAHD1 / RFU, BDP1 / Fold change vs veh, BDP1 / RFU, LRRCC1 / Fold change vs veh, LRRCC1 / RFU, ARID1A / Fold change vs veh, ARID1A / RFU, ZNF146 / Fold change vs veh, ZNF146 / RFU, ZNF330 / Fold change vs veh, ZNF330 / RFU, GPN3 / Fold change vs veh, GPN3 / RFU, C9orf123 / Fold change vs veh, C9orf123 / RFU, N4BP2L2 / Fold change vs veh, N4BP2L2 / RFU, ARFIP1 / Fold change vs veh, ARFIP1 / RFU, FAM179B / Fold change vs veh, FAM179B / RFU, BCL10 / Fold change vs veh, BCL10 / RFU, UHRF1BP1L / Fold change vs veh, UHRF1BP1L / RFU, BET1 / Fold change vs veh, BET1 / RFU, CNOT2 / Fold change vs veh, CNOT2 / RFU, ZNF268 / Fold change vs veh, ZNF268 / Fold change vs veh, ZNF507 / RFU, DGCR2 / Fold change vs veh, DGCR2 / RFU, WDSUB1 / Fold change vs veh, WDSUB1 / Fold change vs veh, HSP90B1 /// MIR3652 / RFU, ADSS / Fold change vs veh, ADSS / RFU, GK / Fold change vs veh, GK / RFU, ZNF148 / Fold change vs veh, ZNF148 / RFU, TAF9 / Fold change vs veh, TAF9 / RFU, SLC1A5 / Fold change vs veh, SLC1A5 / RFU, SLMO2 / Fold change vs veh, SLMO2 / RFU, ABCC4 / Fold change vs veh, ABCC4 / RFU, LOC101060439 /// RAP1B / Fold change vs veh, LOC101060439 /// RAP1B / RFU, RFX7 / Fold change vs veh, RFX7 / RFU, GTPBP10 / Fold change vs veh, GTPBP10 / RFU, CNEP1R1 / Fold change vs veh, CNEP1R1 / RFU, BIVM-ERCC5 /// ERCC5 / Fold change vs veh, BIVM-ERCC5 /// ERCC5 / RFU, ILF3 / Fold change vs veh, ILF3 / RFU 11762660_at / Fold change /veh 11762660_at / RFU VCAN (11757783_s_at) / Fold change /veh VCAN (11757783_s_at) / RFU DDX43 (11728927_at) / Fold change /veh DDX43 (11728927_at) / RFU KRT8 (11758188_x_at) / Fold change /veh KRT8 (11758188_x_at) / RFU NKD1 (11759106_at) / Fold change /veh NKD1 (11759106_at) / RFU SRD5A1 (11742802_a_at) / Fold change /veh SRD5A1 (11742802_a_at) / RFU TPSAB1 /// TPSB2 (11721975_s_at) / Fold change /veh TPSAB1 /// TPSB2 (11721975_s_at) / RFU GSTM3 (11746129_a_at) / Fold change /veh GSTM3 (11746129_a_at) / RFU IL23R (11737362_x_at) / Fold change /veh IL23R (11737362_x_at) / RFU TMEM51 (11727254_a_at) / Fold change /veh TMEM51 (11727254_a_at) / RFU PIWIL2 (11732686_x_at) / Fold change /veh PIWIL2 (11732686_x_at) / RFU ORM1 (11744905_x_at) / Fold change /veh ORM1 (11744905_x_at) / RFU CCDC152 (11743942_at) / Fold change /veh CCDC152 (11743942_at) / RFU ECM1 (11717891_a_at) / Fold change /veh ECM1 (11717891_a_at) / RFU IL23R (11748794_a_at) / Fold change /veh IL23R (11748794_a_at) / RFU TNFAIP8L3 (11732012_x_at) / Fold change /veh TNFAIP8L3 (11732012_x_at) / RFU MBOAT4 (11741988_at) / Fold change /veh MBOAT4 (11741988_at) / RFU 11764193_at / Fold change /veh 11764193_at / RFU TMEM53 (11763286_at) / Fold change /veh TMEM53 (11763286_at) / RFU MAGEB2 (11727129_at) / Fold change /veh MAGEB2 (11727129_at) / RFU TMEM200A (11744735_a_at) / Fold change /veh TMEM200A (11744735_a_at) / RFU CCDC152 (11751479_a_at) / Fold change /veh CCDC152 (11751479_a_at) / RFU FAM211A (11726209_a_at) / Fold change /veh FAM211A (11726209_a_at) / RFU RGS16 (11746705_a_at) / Fold change /veh RGS16 (11746705_a_at) / RFU VCAN (11755009_s_at) / Fold change /veh VCAN (11755009_s_at) / RFU RHOB (11743442_s_at) / Fold change /veh RHOB (11743442_s_at) / RFU RGS16 (11720943_a_at) / Fold change /veh RGS16 (11720943_a_at) / RFU RGS16 (11720944_at) / Fold change /veh RGS16 (11720944_at) / RFU, VPS4B / Fold change vs veh, VPS4B / RFU, CREB1 / Fold change vs veh, CREB1 / RFU, DNAJC13 / Fold change vs veh, DNAJC13 / RFU, GNAQ / Fold change vs veh, GNAQ / RFU, CDK5R1 / Fold change vs veh, CDK5R1 / RFU, ZRANB3 / Fold change vs veh, ZRANB3 / RFU, CUL4A / Fold change vs veh, CUL4A / RFU, CCNY / Fold change vs veh, CCNY / RFU, UFL1 / Fold change vs veh, UFL1 / RFU, COG3 / Fold change vs veh, COG3 / RFU, DIAPH2 / Fold change vs veh, DIAPH2 / RFU, SKA2 / Fold change vs veh, SKA2 / RFU, AFF3 / Fold change vs veh, AFF3 / RFU, LMF1 / Fold change vs veh, LMF1 / RFU, IPO11 / Fold change vs veh, IPO11 / RFU, DFFB / Fold change vs veh, DFFB / RFU, FOXP1 / Fold change vs veh, FOXP1 / RFU, CARD8 / Fold change vs veh, CARD8 / RFU, STRN3 / Fold change vs veh, STRN3 / RFU, ADK / Fold change vs veh, ADK / RFU, RASSF2 / Fold change vs veh, RASSF2 / RFU, WIPF1 / Fold change vs veh, WIPF1 / RFU, LARP1B / Fold change vs veh, LARP1B / RFU, RASA1 / Fold change vs veh, RASA1 / RFU, RB1 / Fold change vs veh, RB1 / RFU, PPFIA1 / Fold change vs veh, PPFIA1 / RFU, MAT2A / Fold change vs veh, MAT2A / RFU, CCT5 / Fold change vs veh, CCT5 / RFU, WDR92 / Fold change vs veh, WDR92 / RFU, CUX1 / Fold change vs veh, CUX1 / RFU, TTC7A / Fold change vs veh, TTC7A / RFU, TMEM135 / Fold change vs veh, TMEM135 / RFU, DEPTOR / Fold change vs veh, DEPTOR / RFU, CPM / Fold change vs veh, CPM / RFU, DNAJB6 / Fold change vs veh, DNAJB6 / RFU, CACNA2D3 / Fold change vs veh, CACNA2D3 / RFU, DTX4 / Fold change vs veh, DTX4 / RFU, TFCP2 / Fold change vs veh, TFCP2 / RFU, GMCL1 /// GMCL1P1 / Fold change vs veh, GMCL1 /// GMCL1P1 / RFU, AEBP2 / Fold change vs veh, AEBP2 / RFU, SNHG1 /// SNORD22 /// SNORD25 /// SNORD26 /// SNORD27 /// SNORD28 /// SNORD29 /// SNORD31 / Fold change vs veh, SNHG1 /// SNORD22 /// SNORD25 /// SNORD26 /// SNORD27 /// SNORD28 /// SNORD29 /// SNORD31 / Fold change (Aza/veh), C12orf56 (ProbeSet 11735607_a_at) / Fold change (ACY-1035/veh), C12orf56 (ProbeSet 11735607_a_at) / Fold change (Aza/veh), FGFR1OP (ProbeSet 11751329_s_at) / Fold change (ACY-1035/veh), FGFR1OP (ProbeSet 11751329_s_at) / Fold change (Aza/veh), VPS36 (ProbeSet 11739960_a_at) / Fold change (ACY-1035/veh), VPS36 (ProbeSet 11739960_a_at) / RFU SYPL1 (11715823_x_at) / Fold change /veh SYPL1 (11715823_x_at) / RFU IGFBP7 (11715501_s_at) / Fold change /veh IGFBP7 (11715501_s_at) / RFU REEP3 (11722064_at) / Fold change /veh REEP3 (11722064_at) / RFU IGLL1 (11728026_x_at) / Fold change /veh IGLL1 (11728026_x_at): dose or concentration left out as unconfirmed. To be noted: MV-4-11 cells, 48 hours.

As to `Nc1ncn([C@@H]2O[C@H](CO)[C@@H](O)[C@H]2O)c(=O)n1` [azacitidine], the “RFU IL23R (11737362_x_at)” value is recorded as 11.80 RFU.

These data come from PMC5218480 (PLoS ONE, 2017).
